Read-outs that look alike come from different tables or passages of the source. Numbered stars: 1 amine (or outer) side, 2 acyl side, 3 side chain; on linkers, the order of the positions; unused ones are H or OH. Bridge positions count the residues as written; N and C are the ends. Square brackets hold non-standard residues; d marks the D form. Peptide text beside a SMILES is read from it. I, II: the chains in the order shown. Actinocin(9to1) = Cc1c2oc3c(C)ccc(C(=O)[*:1])c3nc-2c(C(=O)[*:2])c(N)c1=O; NMeV = CN[C@H](C(=O)O)C(C)C; Sar = CNCC(=O)O
Assays:
[1] = biological target: T1, human FXR (Homo sapiens, UniProt Q96RI1); test: FXR-bla reporter gene assay, agonist mode (qHTS); details: for FXR agonist activity: FXR-bla assay; for FXR agonist Efficacy: Table S3; for FXR agonist EC50: Table S3, FXR-active drugs
T1 sequence (Q96RI1 with tags, fused parts or gaps limits assumed): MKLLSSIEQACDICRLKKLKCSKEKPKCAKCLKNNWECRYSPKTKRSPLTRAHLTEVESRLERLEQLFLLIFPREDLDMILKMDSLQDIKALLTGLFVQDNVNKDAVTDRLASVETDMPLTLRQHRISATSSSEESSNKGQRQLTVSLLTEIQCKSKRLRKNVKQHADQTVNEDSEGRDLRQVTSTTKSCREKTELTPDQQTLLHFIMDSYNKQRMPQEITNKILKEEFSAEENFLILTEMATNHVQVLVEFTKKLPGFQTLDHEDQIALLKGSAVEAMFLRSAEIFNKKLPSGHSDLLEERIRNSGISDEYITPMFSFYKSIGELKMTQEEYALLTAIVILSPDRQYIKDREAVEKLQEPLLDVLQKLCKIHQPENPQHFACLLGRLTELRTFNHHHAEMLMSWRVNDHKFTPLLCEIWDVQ

[2] = test system: FXR-UAS-bla HEK293T cells; test: Cell viability assay (CellTiter Glo) in the same well as FXR-bla; details: for IC50: read-out: Cytotoxicity IC50
[3] = biological target: T1, human FXR; test: FXR-bla reporter gene assay, antagonist mode (CDCA-induced transactivation); details: for FXR antagonist activity: FXR-bla assay
[4] = Table S1, primary screening, 50 µM CDCA
[5] = read-out: FXR agonist mode EC50, Table S1, primary screening
[6] = Table 1, mean ± SD of 3 experiments
[7] = read-out: FXR antagonist mode IC50
[8] = IC50, FXR-bla antagonist mode, primary screening, CDCA-induced

Compound: COCCOC(=O)C1=C(C)NC(C)=C(C(=O)OC/C=C/c2ccccc2)C1c1cccc([N+](=O)[O-])c1 (stereo not drawn) [Cilnidipine]
- EC50 [1]: 8.08 ± 3.4 µM
- FXR agonist activity [1]: FXR agonists
- FXR agonist mode Efficacy ([1]; Table S1, primary screening, CDCA 100%): 64 ± 7%
- FXR agonist Efficacy [1]: 64 ± 7%
- Cytotoxicity IC50 ([2]; Table S1, primary screening): Inactive
- IC50 [3]: 31.1 ± 2.1 µM
- FXR antagonist mode Efficacy [3, 4]: 64 ± 12%
- FXR antagonist Efficacy ([3]; Table S3, 50 µM CDCA): 64 ± 12%

Compound: CC(=O)O[C@@]12CO[C@@H]1C[C@H](O)[C@@]1(C)C(=O)[C@H](O)C3=C(C)[C@@H](OC(=O)[C@H](O)[C@@H](NC(=O)OC(C)(C)C)c4ccccc4)C[C@@](O)([C@@H](OC(=O)c4ccccc4)[C@H]21)C3(C)C [Docetaxel]
- FXR agonist mode EC50 ([1]; Table S1, primary screening): Inactive
- Cytotoxicity IC50 ([2]; Table S1, primary screening): Inactive
- IC50 [3]: 0.008 ± 0.005 µM
- FXR antagonist activity ([3]; CDCA-induced): antagonistic effects
- FXR antagonist mode Efficacy [3, 4]: 35 ± 4%

Compound: C[C@]12CC[C@@H]3c4ccc(O)cc4C[C@@H](CCCCCCCCC[S+]([O-])CCCC(F)(F)C(F)(F)F)[C@H]3[C@@H]1CC[C@@H]2O (stereo partly drawn) [Fulvestrant]
- Cytotoxicity IC50 ([2]; Table S1, primary screening): Inactive

Compound: CC(C)=CC1C(C(=O)OCc2cccc(Oc3ccccc3)c2)C1(C)C (stereo not drawn) [Phenothrin]
- FXR agonist mode EC50 ([1]; Table S1, primary screening): Inactive
- Cytotoxicity IC50 ([2]; Table S1, primary screening): Inactive
- FXR antagonist mode Efficacy [3]: 27 ± 7
- IC50 [3]: 25.4 ± 11.8 µM

Compound: CC(C)[C@H](Nc1ccc(C(F)(F)F)cc1Cl)C(=O)OC(C#N)c1cccc(Oc2ccccc2)c1 (stereo partly drawn) [Fluvalinate]
- FXR agonist mode EC50 ([1]; Table S1, primary screening): Inactive
- Cytotoxicity IC50 ([2]; Table S1, primary screening): Inactive
- FXR antagonist mode Efficacy [3]: 53 ± 3
- IC50 ([3]; FXR antagonist mode IC50): 30.3 ± 12 µM

Compound: AM580
- FXR agonist mode Efficacy [1]: 68 ± 37
- FXR agonist activity [1]: selectively induced transactivation of FXR
- EC50 [1, 5]: 45.4 ± 3.07 µM
- Cytotoxicity IC50 ([2]; Table S1, primary screening): Inactive
- FXR antagonist mode IC50 [3]: Inactive

Compound: CC[C@H](C)[C@H]1O[C@]2(CC[C@@H]1C)C[C@@H]1C[C@@H](C/C=C(\C)[C@@H](O[C@H]3C[C@H](OC)[C@@H](O[C@H]4C[C@H](OC)[C@@H](O)[C@H](C)O4)[C@H](C)O3)[C@@H](C)/C=C/C=C3\CO[C@@H]4[C@H](O)C(C)=C[C@@H](C(=O)O1)[C@]34O)O2 [Ivermectin B1a]
- Cytotoxicity Efficacy ([2]; Table S1, primary screening): 124 ± 6%
- Cytotoxicity Efficacy ([2]; Table S3): 124 ± 6%
- IC50 ([2]; Table S1, primary screening): 14.1 ± 2.63 µM

Compound: CCC1=C[C@@H]2CN(C1)Cc1c([nH]c3ccccc13)[C@@](C(=O)OC)(c1cc3c(cc1OC)N(C)[C@H]1[C@@](O)(C(=O)OC)[C@H](OC(C)=O)[C@]4(CC)C=CCN5CC[C@]31[C@@H]54)C2 [Vinorelbine]
- Cytotoxicity Efficacy ([2]; Table S3): 41 ± 5%

Compound: CC(C)c1onc(-c2c(Cl)cccc2Cl)c1COc1ccc(/C=C/c2cccc(C(=O)O)c2)c(Cl)c1 [GW4064]
- Cytotoxicity IC50 ([2]; Table S1, primary screening): Inactive

Compound: COC(=O)C1=C(C)NC(C)=C(C(=O)OCC(C)C)C1c1ccccc1[N+](=O)[O-] (stereo not drawn) [Nisoldipine]
- FXR agonist mode EC50 ([1]; Table S1, primary screening): Inactive
- Cytotoxicity IC50 ([2]; Table S1, primary screening): Inactive
- IC50 [3]: 32.6 ± 20.2 µM
- FXR antagonist activity ([3]; CDCA-induced): antagonists
- FXR antagonist mode Efficacy [3, 4]: 73 ± 29%

Compound: COc1cccc2c1C(=O)c1c(O)c3c(c(O)c1C2=O)C[C@@](O)(C(=O)CO)C[C@@H]3O[C@H]1C[C@H](N)[C@@H](O)[C@H](C)O1 [Epirubicin]
- Cell viability IC50 [2, 6]: Inactive

Compound: O=C(Nc1ccccc1)c1ccccc1SSc1ccccc1C(=O)Nc1ccccc1 [DTBBA, 2,2-Dithiobisbenzanilide]
- FXR agonist mode Efficacy [1]: 31 ± 13
- EC50 [1, 5]: 24.6 ± 15.3 µM
- FXR antagonist mode Efficacy [3]: 51 ± 17
- IC50 [3, 7]: 18 ± 8.46 µM

Compound: O=c1cc(-c2ccc(O)cc2)oc2cc(O)cc(O)c12 [Apigenin]
- Cytotoxicity IC50 ([2]; Table S1, primary screening): Inactive

Compound: Cc1c(F)c(F)c(COC(=O)[C@@H]2[C@H](/C=C(\Cl)C(F)(F)F)C2(C)C)c(F)c1F (racemic) [Tefluthrin]
- FXR agonist mode EC50 ([1]; Table S1, primary screening): Inactive
- Cytotoxicity IC50 ([2]; Table S1, primary screening): Inactive
- FXR antagonist mode Efficacy [3]: 46 ± 7
- IC50 ([3]; FXR antagonist mode IC50): 12.4 ± 2.01 µM

Compound: COC(=O)C1=C(C)NC(C)=C(C(=O)OC)C1c1ccccc1[N+](=O)[O-] [Nifedipine]
- FXR agonist mode EC50 ([1]; Table S1, primary screening): Inactive
- FXR antagonist activity ([3]; CDCA-induced): antagonists
- IC50 [3, 8]: 34 µM
- FXR antagonist mode Efficacy [3, 4]: 66 ± 46%

Compound: CO/N=C1\C[C@]2(C[C@@H]3C[C@@H](C/C=C(\C)C[C@@H](C)/C=C/C=C4\CO[C@@H]5[C@H](O)C(C)=C[C@@H](C(=O)O3)[C@]45O)O2)O[C@H](/C(C)=C/C(C)C)[C@H]1C [Moxidectin, moxidectin]
- FXR agonist activity [1]: did not show agonist activity

Compound: CCOC(=O)[C@H](CCc1ccccc1)N[C@H]1CCc2ccccc2N(CC(=O)O)C1=O [Benazepril]
- Cytotoxicity Efficacy ([2]; Table S3): 87 ± 27%

Compound: Cc1c2oc3c(C)ccc(C(=O)N[C@@H]4C(=O)N[C@H](C(C)C)C(=O)N5CCC[C@H]5C(=O)N(C)CC(=O)N(C)[C@@H](C(C)C)C(=O)O[C@@H]4C)c3nc-2c(C(=O)N[C@@H]2C(=O)N[C@H](C(C)C)C(=O)N3CCC[C@H]3C(=O)N(C)CC(=O)N(C)[C@@H](C(C)C)C(=O)O[C@@H]2C)c(N)c1=O [Actinomycin D] (I: T[dV]P[Sar][NMeV] / II: T[dV]P[Sar][NMeV]; ester I:1-I:C, II:1-II:C; linker I:N-II:N via Actinocin(9to1))
- Cell viability IC50 [2]: Inactive

Compound: COc1cccc2c1C(=O)c1c(O)c3c(c(O)c1C2=O)C[C@@](O)(C(=O)CO)C[C@@H]3O[C@H]1C[C@H](N2CCO[C@H](OC)C2)[C@H](O)[C@H](C)O1 [Nemorubicin]
- Cell viability IC50 [2]: Inactive

Compound: C[C@]12CC[C@@H]3c4ccc(O)cc4CC[C@H]3[C@@H]1CC[C@H]2O [17α-Estradiol]
- Cytotoxicity IC50 ([2]; Table S1, primary screening): Inactive

Compound: C[C@]12CC[C@@H]3c4ccc(O)cc4CC[C@H]3[C@@H]1CC[C@@H]2O [17β-Estradiol]
- Cytotoxicity IC50 ([2]; Table S1, primary screening): Inactive

Compound: CO[C@@]12[C@H](COC(N)=O)C3=C(C(=O)C(C)=C(N)C3=O)N1C[C@@H]1N[C@@H]12 [Mitomycin C]
- FXR agonist EC50 [1]: Inactive
- FXR antagonist Efficacy ([3]; Table S3, 50 µM CDCA): 62 ± 4%

Compound: COC(=O)C1=C(C)NC(C)=C(C(=O)OC2CCCN(Cc3ccccc3)C2)C1c1cccc([N+](=O)[O-])c1 (stereo not drawn) [Benidipine]
- FXR agonist activity [1]: weak FXR agonist activity
- FXR agonist mode EC50 ([1]; Table S1, primary screening): Inactive
- Cytotoxicity IC50 ([2]; Table S1, primary screening): Inactive
- IC50 [3, 8]: 24.8 µM
- FXR antagonist mode Efficacy [3, 4]: 84 ± 17%
- FXR antagonist Efficacy ([3]; Table S3, 50 µM CDCA): 84 ± 17%

Compound: CCC[S+]([O-])c1ccc2[nH]c(NC(=O)OC)nc2c1 (stereo not drawn) [Albendazole oxide]
- FXR agonist mode EC50 ([1]; Table S1, primary screening): Inactive
- Cytotoxicity IC50 ([2]; Table S1, primary screening): Inactive
- FXR antagonist mode Efficacy [3]: 35 ± 16%
- IC50 ([3]; FXR antagonist mode IC50): 27.9 ± 5.02 µM

Compound: CN1CC[C@H](c2c(O)cc(O)c3c(=O)cc(-c4ccccc4Cl)oc23)[C@H](O)C1 [Flavopiridol]
- Cell viability IC50 [2, 6]: Inactive

Compound: Emamectin
- FXR agonist mode Efficacy [1]: 56 ± 26%
- EC50 [1, 5]: 24.6 ± 8.97 µM
- Cytotoxicity Efficacy ([2]; Table S1, primary screening): 116 ± 14%
- IC50 ([2]; Table S1, primary screening): 7.54 ± 1.29 µM
- FXR antagonist mode Efficacy [3]: 64 ± 19%
- IC50 [3, 7]: 5.81 ± 2.68 µM

Compound: CCCCc1ccc2[nH]c(NC(=O)OC)nc2c1 [Parbendazole]
- FXR agonist mode EC50 ([1]; Table S1, primary screening): Inactive
- Cytotoxicity IC50 ([2]; Table S1, primary screening): Inactive
- FXR antagonist mode Efficacy [3]: 43 ± 3%
- IC50 ([3]; FXR antagonist mode IC50): 0.16 ± 0.14 µM

Compound: CC[C@]1(O)CC[C@H]2[C@@H]3CCC4=CCCC[C@@H]4[C@H]3CC[C@@]21C [Ethylestrenol]
- FXR agonist EC50 [1]: Inactive
- FXR antagonist Efficacy [3]: 66 ± 11%

Compound: CO[C@H]1C[C@H](O[C@H]2[C@H](C)O[C@@H](O[C@@H]3/C(C)=C/C[C@@H]4C[C@@H](C[C@]5(C=C[C@H](C)[C@@H](C6CCCCC6)O5)O4)OC(=O)[C@@H]4C=C(C)[C@@H](O)[C@H]5OC/C(=C\C=C\[C@@H]3C)[C@]54O)C[C@@H]2OC)O[C@@H](C)[C@@H]1O [Doramectin]
- FXR agonist mode Efficacy [1]: 62 ± 9%
- FXR agonist Efficacy [1]: 62 ± 9%
- Cytotoxicity Efficacy ([2]; Table S1, primary screening): 116 ± 6%
- Cytotoxicity Efficacy ([2]; Table S3): 116 ± 6%
- IC50 ([2]; Table S1, primary screening): 11 µM
- FXR antagonist Efficacy [3]: 152 ± 10%
- FXR antagonist mode Efficacy [3]: 152 ± 10%

Compound: C#C[C@]1(O)CC[C@H]2[C@@H]3CCc4cc(O)ccc4[C@H]3CC[C@@]21C [Ethinylestradiol]
- Cytotoxicity Efficacy ([2]; Table S1, primary screening): 36 ± 47%
- Cytotoxicity Efficacy ([2]; Table S3): 36 ± 47%

Compound: C[C@H](CCC(=O)O)[C@H]1CC[C@H]2[C@@H]3[C@H](O)C[C@@H]4C[C@H](O)CC[C@]4(C)[C@H]3CC[C@]12C [CDCA, Chenodeoxycholic acid]
- Cytotoxicity Efficacy ([2]; Table S1, primary screening): 50 ± 1%

Compound: CCCCNC(=O)n1c(NC(=O)OC)nc2ccccc21 [Benomyl]
- FXR agonist mode EC50 ([1]; Table S1, primary screening): Inactive
- Cytotoxicity IC50 ([2]; Table S1, primary screening): Inactive
- FXR antagonist mode Efficacy [3]: 21 ± 18%
- IC50 [3, 8]: 18.3 µM

Compound: CCOc1ccc2nc3cc(N)ccc3c(N)c2c1 [Ethacridine]
- EC50 [1]: 21.4 ± 12 µM
- FXR agonist Efficacy [1]: 31 ± 11%
- FXR antagonist Efficacy ([3]; Table S3, 50 µM CDCA): 75 ± 17%

Reference: paper PMC4894417, “Quantitative High-Throughput Profiling of Environmental Chemicals and Drugs that Modulate Farnesoid X Receptor” (Scientific Reports, 2014)
